Literature values, collected in publication PMC3009454 (Bioconjugate chemistry, 2009).

System: primary melanoma and pulmonary melanoma metastases
Conditions: small animal SPECT/CT

In the case of “^111In-1,4,7,10-tetraazacyclododecane-1,4,7,10-tetraacetic acid-c[Lys-Nle-Glu-His-DPhe-Arg-Trp-Gly-Arg-Pro-Val-Asp] (sidechain bridge or staple) [^111In-DOTA-GlyGlu-CycMSH]”, the “SPECT/CT visualization of primary melanoma and pulmonary melanoma metastases” value is listed as “clearly visualized”.
